The target in the assay is T1, human H1 receptor (Homo sapiens, UniProt P35367).
T1 construct: purchased Euroscreen SA, Brussels, Belgium ES-390-M; host or cells: CHO-K1
T1 sequence (P35367 whole entry): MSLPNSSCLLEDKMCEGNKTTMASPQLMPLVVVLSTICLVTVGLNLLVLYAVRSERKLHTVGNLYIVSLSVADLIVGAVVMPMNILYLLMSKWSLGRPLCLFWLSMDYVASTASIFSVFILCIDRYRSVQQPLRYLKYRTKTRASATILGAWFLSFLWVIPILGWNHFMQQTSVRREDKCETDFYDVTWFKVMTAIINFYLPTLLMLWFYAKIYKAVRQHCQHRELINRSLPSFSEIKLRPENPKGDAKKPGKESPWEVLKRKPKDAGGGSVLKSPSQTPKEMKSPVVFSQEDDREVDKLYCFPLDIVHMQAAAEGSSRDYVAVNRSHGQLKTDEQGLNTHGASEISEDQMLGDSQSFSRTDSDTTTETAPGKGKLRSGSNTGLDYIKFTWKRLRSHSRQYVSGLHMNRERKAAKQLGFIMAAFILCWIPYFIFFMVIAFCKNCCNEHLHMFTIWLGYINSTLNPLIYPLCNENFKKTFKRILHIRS
Nature of the assay: Histamine H1 receptor binding, competition displacement of [3H]-pyrilamine. The following applies: displacement of 1 nM [3H]-pyrilamine; 2 μg membranes from recombinant CHO-K1 cells expressing the human H1 receptor; 1 hour at room temperature; read-out: H1 pKi (converted).
Turning to `COC(=O)c1ccccc1N1CCC(CN2CCC(Oc3ccc(Cl)c(Cl)c3)CC2)CC1` [Example 1, methyl 2-[4-[[4-(3,4-dichlorophenoxy)-1-piperidinyl]methyl]-1-piperidinyl)-benzoate], the Ki is 2.51 nM. `CCOC(=O)c1cccc(N2CCC(CN3CCC(Cc4ccc(Cl)c(Cl)c4)CC3)CC2)c1` [Example 32, Ethyl 3-(4-{[4-(3,4-dichlorobenzyl)piperidin-1-yl]methyl}piperidin-1-yl)benzoate]: the Ki is 10 nM.

In the case of `N#Cc1ccc(OC2CCN(CC3CCN(c4ccccc4C(=O)O)CC3)CC2)cc1Cl` [Example 34, 2-(4-{[4-(3-chloro-4-cyanophenoxy)piperidin-1-yl]methyl}piperidin-1-yl)benzoic acid], the Ki is 631 nM. For `N#Cc1ccc(OC2CCN(CC3CCN(c4cc(Cl)ccc4C(=O)O)CC3)CC2)cc1Cl` [Example 36, 4-chloro-2-(4-{[4-(3-chloro-4-cyanophenoxy)piperidin-1-yl]methyl}piperidin-1-yl)benzoic acid] the value was 10 nM. For `Cc1ccc(C(=O)O)c(N2CCC(CN3CCC(Oc4ccc(Cl)c(Cl)c4)CC3)CC2)n1` [Example 47, 2-(4-{[4-(3,4-dichlorophenoxy)piperidin-1-yl]methyl}piperidin-1-yl)-6-methylnicotinic acid], the Ki is 5.01 nM.

On to `N#Cc1ccc(OC2CCN(CC3CCN(c4c(Cl)cccc4C(=O)O)CC3)CC2)cc1Cl` [Example 48, 3-chloro-2-(4-{[4-(3-chloro-4-cyanophenoxy)piperidin-1-yl]methyl}piperidin-1-yl)benzoic acid], for which the Ki is 79.4 nM. As to `Cc1cc(Cl)ccc1OC1CCN(CC2CCN(c3ccccc3C(=O)O)CC2)CC1` [Example 49, 2-(4-{[4-(4-chloro-2-methylphenoxy)piperidin-1-yl]methyl}piperidin-1-yl)benzoic acid], the Ki is 50.1 nM.

Take `COc1cccc(C(=O)O)c1N1CCC(CN2CCC(Oc3ccc(C#N)c(Cl)c3)CC2)CC1` [Example 55, 2-(4-{[4-(3-chloro-4-cyanophenoxy)piperidin-1-yl]methyl}piperidin-1-yl)-3-methoxybenzoic acid]: the Ki was 316 nM. Regarding `Cc1cc(Cl)ccc1OC1CCN(CC2CCN(c3ccc([N+](=O)[O-])cc3C(=O)O)CC2)CC1` [Example 59, 2-(4-{[4-(4-chloro-2-methylphenoxy)piperidin-1-yl]methyl}piperidin-1-yl)-5-nitrobenzoic acid], the Ki is 1.58 nM.

`O=C(O)c1ccccc1N1CCC(O)(CN2CCC(Oc3ccc(Cl)c(Cl)c3)CC2)CC1` [Example 63, 2-(4-{[4-(3,4-dichlorophenoxy)piperidin-1-yl]methyl}-4-hydroxypiperidin-1-yl)benzoic acid]: the Ki was 50.1 nM.

Take `Cc1cc(OC2CCN(CC3CCN(c4c(F)cccc4C(=O)O)CC3)CC2)ccc1Cl` [Example 68, 2-(4-{[4-(4-chloro-3-methylphenoxy)piperidin-1-yl]methyl}piperidin-1-yl)-3-fluorobenzoic acid]: the Ki is 15.8 nM. Consider `Cc1cc(OC2CCN(CC3CCN(c4cc(Cl)ccc4C(=O)O)CC3)CC2)ccc1Cl` [Example 74, 4-chloro-2-(4-{[4-(4-chloro-3-methylphenoxy)piperidin-1-yl]methyl}piperidin-1-yl)benzoic acid], for which the Ki is 2.51 nM.

Take `Cc1c(OC2CCN(CC3CCN(c4cccc(C(=O)O)c4)CC3)CC2)ccc(Cl)c1Cl` [Example 96, 3-(4-{[4-(3,4-dichloro-2-methylphenoxy)piperidin-1-yl]methyl}piperidin-1-yl)benzoic acid]: the Ki is 20 nM. For `Cc1cc(C(=O)O)cc(N2CCC(CN3CCC(Oc4ccc(Cl)c(Cl)c4)CC3)CC2)c1` [Example 99, 3-(4-{[4-(3,4-dichlorophenoxy)piperidin-1-yl]methyl}piperidin-1-yl)-5-methylbenzoic acid] the value was 7.94 nM.

`O=C(O)c1cccc(N2CCC(CN3CCC(Cc4ccc(Cl)c(Cl)c4)CC3)CC2)c1` [Example 106, 3-(4-{[4-(3,4-dichlorobenzyl)piperidin-1-yl]methyl}piperidin-1-yl)benzoic acid]: the Ki was 20 nM.

The values are drawn from patent US20060264463A1, “Chemical compounds” (priority 2003, published 2006).
